Assay results as given in ChEMBL document CHEMBL1909294, “Translating clinical findings into knowledge in drug safety evaluation--drug induced liver injury prediction system (DILIps)” (PLoS Comput Biol, 2011).

Legend:
[1] = tested on: Hepatotoxicity;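 on HepSE cholecystitis: Cholecystitis-related hepatic side effect score drawn from the DILIps (drug-induced liver injury prediction) training data set; call rule not given here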;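 on HepSE cholelithiasis: hepatic side effect score for cholelithiasis, drawn from the DILIps training data for predicting drug-induced liver injury; call rule not given here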;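 on HepSE cirrhosis: cirrhosis hepatic side effect score taken from the DILIps (drug-induced liver injury prediction) training set; call rule not given here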;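 on HepSE elevated liver function tests: hepatic side effect score for raised liver function tests, as recorded in the DILIps training set used for predicting drug-induced liver injury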; on HepSE hepatic failure: call rule not given here;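 on HepSE hepatic necrosis: score of hepatic side effects for hepatic necrosis, drawn from the training data of DILIps, a prediction system for drug-induced liver injury; call rule not given here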;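 on HepSE hepatomegaly: hepatic side effect score for hepatomegaly, taken from the training set of the DILIps drug-induced liver injury prediction system; call rule not given here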
[2] = tested on: Hepatotoxicity; remark: listed apart in the source;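 on HepSE cholecystitis: Cholecystitis-related hepatic side effect score drawn from the DILIps (drug-induced liver injury prediction) training data set; call rule not given here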;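 on HepSE cholelithiasis: hepatic side effect score for cholelithiasis, drawn from the DILIps training data for predicting drug-induced liver injury; call rule not given here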;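 on HepSE elevated liver function tests: hepatic side effect score for raised liver function tests, as recorded in the DILIps training set used for predicting drug-induced liver injury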; on HepSE hepatic failure: call rule not given here;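 on HepSE hepatic necrosis: score of hepatic side effects for hepatic necrosis, drawn from the training data of DILIps, a prediction system for drug-induced liver injury; call rule not given here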;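 on HepSE hepatomegaly: hepatic side effect score for hepatomegaly, taken from the training set of the DILIps drug-induced liver injury prediction system; call rule not given here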
[3] = tested on: Hepatotoxicity; remark: listed apart in the source;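 on HepSE cholecystitis: Cholecystitis-related hepatic side effect score drawn from the DILIps (drug-induced liver injury prediction) training data set; call rule not given here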;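 on HepSE cholelithiasis: hepatic side effect score for cholelithiasis, drawn from the DILIps training data for predicting drug-induced liver injury; call rule not given here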;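 on HepSE elevated liver function tests: hepatic side effect score for raised liver function tests, as recorded in the DILIps training set used for predicting drug-induced liver injury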; on HepSE hepatic failure: call rule not given here;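 on HepSE hepatic necrosis: score of hepatic side effects for hepatic necrosis, drawn from the training data of DILIps, a prediction system for drug-induced liver injury; call rule not given here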;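 on HepSE hepatomegaly: hepatic side effect score for hepatomegaly, taken from the training set of the DILIps drug-induced liver injury prediction system; call rule not given here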
[4] = tested on: Hepatotoxicity; remark: listed apart in the source;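 on HepSE cholecystitis: Cholecystitis-related hepatic side effect score drawn from the DILIps (drug-induced liver injury prediction) training data set; call rule not given here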;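 on HepSE cholelithiasis: hepatic side effect score for cholelithiasis, drawn from the DILIps training data for predicting drug-induced liver injury; call rule not given here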;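 on HepSE elevated liver function tests: hepatic side effect score for raised liver function tests, as recorded in the DILIps training set used for predicting drug-induced liver injury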; on HepSE hepatic failure: call rule not given here;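 on HepSE hepatic necrosis: score of hepatic side effects for hepatic necrosis, drawn from the training data of DILIps, a prediction system for drug-induced liver injury; call rule not given here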;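 on HepSE hepatomegaly: hepatic side effect score for hepatomegaly, taken from the training set of the DILIps drug-induced liver injury prediction system; call rule not given here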
[5] = tested on: Hepatotoxicity; remark: listed apart in the source; on HepSE hepatic failure: call rule not given here
[6] = tested on: Hepatotoxicity; remark: listed apart in the source; on HepSE hepatic failure: call rule not given here
[7] = tested on: Hepatotoxicity; remark: listed apart in the source
[8] = tested on: Hepatotoxicity; remark: listed apart in the source
[9] = tested on: Hepatotoxicity; remark: listed apart in the source
[10] = tested on: Hepatotoxicity; remark: listed apart in the source
[11] = tested on: Hepatotoxicity; remark: listed apart in the source
[12] = tested on: Hepatotoxicity; remark: listed apart in the source
[13] = tested on: Hepatotoxicity; remark: listed apart in the source
[14] = tested on: Hepatotoxicity; remark: listed apart in the source

| SMILES | HepSE_hepatic necrosis [1] | HepSE_hepatic failure [2] | HepSE_cholecystitis [3] | HepSE_cholelithiasis [4] | HepSE_elevated liver function tests [5] | HepSE_hepatomegaly [6] | HepSE_liver fatty [7] | HepSE_cirrhosis [8] | HepSE_jaundice [9] | HepSE_bilirubinemia [10] | HepSE_liver function tests abnormal [11] | HepSE_hepatitis [12] | HepSE_Combined Scores [13] | HepSE_liver disease [14] | also measured |
| --- | --- | --- | --- | --- | --- | --- | --- | --- | --- | --- | --- | --- | --- | --- | --- |
| CC(C)C(=O)OCC(=O)[C@@]12O[C@H](C3CCCCC3)O[C@@H]1C[C@H]1[C@@H]3CCC4=CC(=O)C=C[C@]4(C)[C@H]3[C@@H](O)C[C@@]12C [CICLESONIDE] | 0 | 0 | 0 | 0 | 0 | 0 | 0 | 0 | 0 | 0 | 0 | 0 | 0 | 0 | – |
| Cc1cc(C2CCCCC2)n(O)c(=O)c1 [CICLOPIROX] | 0 | 0 | 0 | 0 | 0 | 0 | 0 | 0 | 0 | 0 | 0 | 0 | 0 | 0 | – |
| Nc1ccn(C[C@@H](CO)OCP(=O)(O)O)c(=O)n1.O.O [CIDOFOVIR] | 1 | 0 | 0 | 0 | 0 | 1 | 0 | 0 | 1 | 0 | 0 | 1 | 4 | 0 | – |
| CCOC(=O)[C@H](CCc1ccccc1)N[C@H]1CCCN2CCC[C@@H](C(=O)O)N2C1=O [CILAZAPRIL] | 0 | 0 | 0 | 0 | 0 | 0 | 0 | 0 | 0 | 0 | 0 | 1 | 1 | 0 | – |
| CN/C(=N/CCSCc1nc[nH]c1C)NC#N [CIMETIDINE] | – | – | – | – | – | – | – | – | – | – | – | – | – | – | HepSE_hepatic necrosis ([1]; Liver): 0; HepSE_hepatic failure ([2]; Liver): 0; HepSE_cholecystitis ([3]; Liver): 0; HepSE_cholelithiasis ([4]; Liver): 0; HepSE_elevated liver function tests ([5]; Liver): 0; HepSE_hepatomegaly ([6]; Liver): 0; HepSE_liver fatty ([7]; Liver): 0; HepSE_cirrhosis ([8]; Liver): 0; HepSE_jaundice ([9]; Liver): 0; HepSE_bilirubinemia ([10]; Liver): 0; HepSE_liver function tests abnormal ([11]; Liver): 0; HepSE_hepatitis ([12]; Liver): 0; HepSE_Combined Scores ([13]; Liver): 0; HepSE_liver disease ([14]; Liver): 0 |
| CCn1nc(C(=O)O)c(=O)c2cc3c(cc21)OCO3 [CINOXACIN] | 0 | 0 | 0 | 0 | 0 | 0 | 0 | 0 | 0 | 0 | 0 | 0 | 0 | 0 | – |
| COc1cc(N)c(Cl)cc1C(=O)NC1CCN(CCCOc2ccc(F)cc2)CC1OC (stereo not drawn) [CISAPRIDE] | 0 | 0 | 0 | 0 | 0 | 0 | 0 | 0 | 0 | 0 | 0 | 1 | 1 | 0 | – |
| CN(C)CCCC1(c2ccc(F)cc2)OCc2cc(C#N)ccc21 (stereo not drawn) [CITALOPRAM] | 1 | 1 | 1 | 1 | 0 | 0 | 0 | 0 | 1 | 1 | 0 | 1 | 7 | 0 | – |
| CC[C@H]1OC(=O)[C@H](C)[C@@H](O[C@H]2C[C@@](C)(OC)[C@@H](O)[C@H](C)O2)[C@H](C)[C@@H](O[C@@H]2O[C@H](C)C[C@H](N(C)C)[C@H]2O)[C@](C)(OC)C[C@@H](C)C(=O)[C@H](C)[C@@H](O)[C@]1(C)O [CLARITHROMYCIN] | 0 | 1 | 0 | 0 | 0 | 1 | 0 | 0 | 1 | 0 | 0 | 1 | 4 | 0 | – |
| CN1CCC[C@@H]1CCO[C@](C)(c1ccccc1)c1ccc(Cl)cc1 [CLEMASTINE] | 0 | 0 | 0 | 0 | – | 0 | 0 | 0 | 0 | 0 | – | 0 | 0 | 0 | HepSE_elevated liver function tests ([5]; Liver): 0; HepSE_liver function tests abnormal ([11]; Liver): 0 |
| CCC[C@@H]1C[C@@H](C(=O)N[C@@H]([C@H]2O[C@H](SC)[C@H](O)[C@@H](O)[C@H]2O)[C@H](C)Cl)N(C)C1 [CLINDAMYCIN] | 0 | 0 | 0 | 0 | 0 | 0 | 0 | 0 | 1 | 0 | 0 | 0 | 1 | 0 | – |
| C[C@H]1C[C@H]2[C@@H]3CCC4=CC(=O)C=C[C@]4(C)[C@@]3(F)[C@@H](O)C[C@]2(C)[C@@]1(O)C(=O)CCl [CLOBETASOL] | 0 | 0 | 0 | 0 | 0 | 0 | 0 | 0 | 0 | 0 | 0 | 0 | 0 | 0 | – |
| O=P(O)(O)C(Cl)(Cl)P(=O)(O)O [CLODRONIC ACID] | 0 | 0 | 0 | 0 | 0 | 0 | 0 | 0 | 0 | 0 | 0 | 0 | 1 | 1 | – |
| Nc1nc(Cl)nc2c1ncn2[C@@H]1O[C@H](CO)[C@@H](O)[C@@H]1F [CLOFARABINE] | 0 | 0 | 0 | 0 | 0 | 1 | 0 | 0 | 1 | 1 | 0 | 0 | 3 | 0 | – |
| CC(C)/N=c1\cc2n(-c3ccc(Cl)cc3)c3ccccc3nc-2cc1Nc1ccc(Cl)cc1 [CLOFAZIMINE] | 0 | 0 | 0 | 0 | 0 | 1 | 0 | 0 | 1 | 0 | 0 | 1 | 3 | 0 | – |
| CN(C)CCCN1c2ccccc2CCc2ccc(Cl)cc21 [CLOMIPRAMINE] | 0 | 0 | 0 | 0 | 0 | 0 | 0 | 0 | 0 | 0 | 0 | 1 | 1 | 0 | – |
| O=C1CN=C(c2ccccc2Cl)c2cc([N+](=O)[O-])ccc2N1 [CLONAZEPAM] | 0 | 0 | 0 | 0 | 0 | 1 | 0 | 0 | 0 | 0 | 0 | 0 | 1 | 0 | – |
